One may read the EC50 as the concentration that produces a half-maximal response. As usually defined, the IC50 is the concentration at which inhibition is half-maximal.

Experiment [1] can be described thus: Binding affinity to synthetic 3'-biotin-labelled pre-miR-21 RNA by ELISA. (In general: In an ELISA, binding on a coated surface is turned into a signal by an enzyme label.)
The nature of experiment [2]: Binding affinity to synthetic 3'-biotin-labelled mirrored pre-miR-21 RNA by ELISA.
The nature of experiment [3]: Binding affinity to synthetic 3'-biotin-labelled pre-miR-21 RNA assessed as inhibition of human recombinant Dicer-mediated pre-miR-21 processing by measuring reduction in mature miR-21 formation pretreated for 30 mins followed by dicer addition after 2 hrs by SYBR staining based PAGE analysis.

`CC(C)[C@H](NC(=O)[C@H](C)NC(=O)[C@H](CCCNC(=N)N)NC(=O)[C@@H]1CSSC[C@H](NC(=O)[C@H](CCCNC(=N)N)NC(=O)CNC(=O)[C@@H]2CCCN2C(=O)CCCC[C@@H]2SC[C@@H]3NC(=O)N[C@@H]32)C(=O)N[C@@H](CCCCN)C(=O)N2CCC[C@H]2C(=O)N[C@@H](CCCCN)C(=O)N[C@@H](CCCNC(=N)N)C(=O)N[C@@H](CCCNC(=N)N)C(=O)N[C@@H](CCCNC(=N)N)C(=O)N[C@@H](CCCNC(=N)N)C(=O)N[C@@H](C)C(=O)N[C@@H]([C@@H](C)O)C(=O)N1)C(=O)O`: the EC50 in experiment [1] was determined as 7.4 µM; in experiment [2], 0.15 µM.

Take `CC(C)[C@@H](NC(=O)[C@@H](C)NC(=O)[C@@H](CCCNC(=N)N)NC(=O)[C@H]1CSSC[C@@H](NC(=O)[C@@H](CCCNC(=N)N)NC(=O)CNC(=O)[C@H]2CCCN2C(=O)CCCC[C@@H]2SC[C@@H]3NC(=O)N[C@@H]32)C(=O)N[C@H](CCCCN)C(=O)N2CCC[C@@H]2C(=O)N[C@H](CCCCN)C(=O)N[C@H](CCCNC(=N)N)C(=O)N[C@H](CCCNC(=N)N)C(=O)N[C@H](CCCNC(=N)N)C(=O)N[C@H](CCCNC(=N)N)C(=O)N[C@H](C)C(=O)N[C@H]([C@H](C)O)C(=O)N1)C(=O)O`: the EC50 in experiment [1] was determined as 0.44 µM; in experiment [2] it was 1.6 µM. For the same molecule, in experiment [3], the half-inhibitory concentration (IC50) turned out to be 0.54 µM.

The values are drawn from ChEMBL document CHEMBL3997793, “Discovery of peptidic miR-21 processing inhibitor by mirror image phage display: A novel method to generate RNA binding D-peptides” (Bioorg Med Chem Lett, 2017).
